Data taken from patent US11028090B2 (Dong Wha Pharm. Co., Ltd., priority 2017, dated 2021).
Read-outs that look alike come from different tables or passages of the source.

How the values were obtained:
[1] = target: BRD4 (BD1+BD2) bromodomain (Homo sapiens (Human), UniProt O60885); assay: BRD4 binding inhibition (AlphaScreen, GST-BRD4 vs tetraacetylated histone H4 peptide)
In short: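 AlphaScreen read after 30 min dark incubation at room temperature with glutathione acceptor/streptavidin donor beads (10 μg/ml each). The beads were added to compound plus 100 nM biotin-H4 (K5,8,12,16-acetyl) peptide and 100 nM GST-BRD4 BD1+BD2 in pH 7.4 HEPES/Tween/BSA/DTT buffer.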

[2] = tested on: acute myelogenous leukemia cells (MV-4-11 cells); assay: Cytotoxicity to acute myelogenous leukemia cells (MV-4-11 cells), CCK-8
[3] = GST-BRD4 (BD1+BD2) / biotinylated acetyl-histone H4 (Lys5,8,12,16) peptide, read-out: IC50, BRD4 binding inhibition
[4] = GST-BRD4 (BD1+BD2) vs biotinylated acetyl-histone H4 peptide, AlphaScreen, read-out: BRD4 IC50
[5] = Homo sapiens, MV4-11, 72 h, read-out: IC50, cytotoxicity against acute myelogenous leukemia cells
[6] = Homo sapiens, MV4-11, 72 h, read-out: MV-4-11 Cytotoxicity IC50

Row | SMILES | IC50 [1, 3] [nM] | IC50 [1, 4] [nM] | IC50 [2, 5] [nM] | IC50 [2, 6] [nM] | IC50 ([2]; read-out: MV-4-11 Cytotoxicity IC50, MV-4-11 cells, 72 hours, CCK-8) [nM]
1 | Cc1nnc2c(NCCCCNC(=O)[C@@H](F)C(C)C)nc3cc(N4CCc5sccc5C4)ccc3n12 [Example 529, N-{4-[7-(6,7-dihydro-4H-thiano[3,2-c]pyridine-5-yl)-1-methyl-[1,2,4]triazolo[4,3-a]quinoxaline-4-ylamino]-butyl}-2-(S)-fluoro-3-methyl-butyramide] | ≤ 50 | 31 | ≤ 200 | 107 | 
2 | CCOc1ccc2c(c1)nc(NCCCCNC(=O)OCC(C)C)c1nnc(C)n12 [Example 444, [4-(7-ethoxy-1-methyl-[1,2,4]triazolo[4,3-a]quinoxaline-4-ylamino)-butyl]-carbamic acid isobutylester] | ≤ 10 | 10 | ≤ 200 | 120 | 
3 | COCCOc1ccc2c(c1)nc(NCCCCNC(=O)OCc1ccccc1)c1nnc(C)n12 [Example 373, {4-[7-(2-methoxy-ethoxy)-1-methyl-[1,2,4]triazolo[4,3-a]quinoxaline-4-ylamino]-butyl}-carbamic acid benzylester] | ≤ 50 | 20 |  | 420 | 
4 | CCC(C)C(=O)NCCCCNc1nc2cc(OC)ccc2n2c(C)nnc12 (centres unmarked) [Example 291, N-[4-(7-methoxy-1-methyl-[1,2,4]triazolo[4,3-a]quinoxaline-4-ylamino)-butyl]-2-methyl-butyramide] |  | 97 |  | 290 | 
5 | COCCOc1ccc2c(c1)nc(NCCCCNC(=O)[C@H](O)C(C)C)c1nnc(C)n12 [Example 388, 2-(R)-hydroxy-N-{4-[7-(2-methoxy-ethoxy)-1-methyl-[1,2,4]triazolo[4,3-a]quinoxaline-4-ylamino]-butyl}-3-methyl-butyramide] | ≤ 10 | 6 | ≤ 200 | 55 | 
6 | COc1cc2nc(NCCCCNC(=O)[C@@H](O)C(C)C)c3nnc(C)n3c2cc1OC [Example 83, N-[4-(7,8-dimethoxy-1-methyl-[1,2,4]triazolo[4,3-a]quinoxaline-4-ylamino)-butyl]-2-(S)-hydroxy-3-methyl-butyramide] | ≤ 10 | 2 |  | 211 | 
7 | COc1ccc2c(c1)nc(NCCCCNC(=O)C(N)C(C)C)c1nnc(C)n12 (centres unmarked) [Example 311, 2-amino-N-[4-(7-methoxy-1-methyl-[1,2,4]triazolo[4,3-a]quinoxaline-4-ylamino)-butyl]-3-methyl-butyramide] | ≤ 50 | 43 |  | 208 | 
8 | Cc1nnc2c(NCCCCNC(=O)[C@@H](O)C(C)C)nc3cc(-c4nc5ccccc5n4C)ccc3n12 [Example 234, 2-(S)-hydroxy-3-methyl-N-{4-[1-methyl-7-(1-methyl-1H-benzoimidazole-2-yl)-[1,2,4]triazolo[4,3-a]quinoxaline-4-ylamino]-butyl}-butyramide] | ≤ 10 | 6 | ≤ 200 | 47 | 
9 | Cc1nnc2c(NCCCCNC(=O)OC3CCCC3)nc3cc(OCCN4CCOCC4)ccc3n12 [Example 437, {4-[1-methyl-7-(2-morpholine-4-yl-ethoxy)-[1,2,4]triazolo[4,3-a]quinoxaline-4-ylamino]-butyl}-carbamic acid cyclopentylester] | ≤ 50 | 31 | ≤ 200 | 70 | 
10 | COc1ccc2c(c1)nc(NCCCCNC(=O)CCC1CCCC1)c1nnc(C)n12 [Example 309, 3-cyclopentyl-N-[4-(7-methoxy-1-methyl-[1,2,4]triazolo[4,3-a]quinoxaline-4-ylamino)-butyl]-propionamide] | ≤ 10 |  | ≤ 200 | 110 | 
11 | Cc1nnc2c(NCCCCNC(=O)Cc3cccs3)nc3cc4c(cc3n12)OCCO4 [Example 185, N-[4-(1-methyl-8,9-dihydro-7,10-dioxa-2,3,5,11b-tetraaza-cyclopenta[a]anthracene-4-ylamino)-butyl]-2-thiophene-2-yl-acetamide] | ≤ 50 | 19 | ≤ 200 | 20 | 
12 | Cc1nnc2c(NCCCCNC(=O)CC(C)C)nc3cc(OCCN4CCOCC4)ccc3n12 [Example 432, 3-methyl-N-{4-[1-methyl-7-(2-morpholine-4-yl-ethoxy)-[1,2,4]triazolo[4,3-a]quinoxaline-4-ylamino]-butyl}-butyramide] | ≤ 50 | 50 | ≤ 200 | 100 | 
13 | Cc1nnc2c(NCCCCNC(=O)CC(C)C)nc3cc(NS(=O)(=O)C(C)C)ccc3n12 [Example 259, 3-methyl-N-{4-[1-methyl-7-(propane-2-sulfonylamino)-[1,2,4]triazolo[4,3-a]quinoxaline-4-ylamino]-butyl}-butyramide] |  |  |  | 339 | 
14 | CSc1ccc2c(c1)nc(NCCCCNC(=O)CC(C)C)c1nnc(C)n12 [Example 356, 3-methyl-N-[4-(1-methyl-7-methylsulfanyl-[1,2,4]triazolo[4,3-a]quinoxaline-4-ylamino)-butyl]-butyramide] |  |  | ≤ 200 | 143 | 
15 | Cc1nnc2c(NCCCCNC(=O)C(C)(C)C)nc3ccc(OC(F)(F)F)cc3n12 [Example 265, 2,2-dimethyl-N-[4-(1-methyl-8-trifluoromethoxy-[1,2,4]triazolo[4,3-a]quinoxaline-4-ylamino)-butyl]-propionamide] |  |  |  | 680 | 
16 | Cc1nnc2c(NCCCCNC(=O)CC(C)C)nc3cc(NC(=S)NC(C)C)ccc3n12 [Example 256, N-{4-[7-(3-isopropyl-thioureido)-1-methyl-[1,2,4]triazolo[4,3-a]quinoxaline-4-ylamino]-butyl}-3-methyl-butyramide] |  |  | ≤ 200 | 84 | 
17 | CNc1ccc2c(c1)nc(NCCCCNC(=O)CC(C)C)c1nnc(C)n12 [Example 252, 3-methyl-N-[4-(1-methyl-7-methylamino-[1,2,4]triazolo[4,3-a]quinoxaline-4-ylamino)-butyl]-butyramide] |  |  |  | 254 | 
18 | COCCOc1cc2c(cc1OC)nc(NCCCCNC(=O)OC(C)(C)C)c1nnc(C)n12 [Example 483, {4-[7-methoxy-8-(2-methoxy-ethoxy)-1-methyl-[1,2,4]triazolo[4,3-a]quinoxaline-4-ylamino]-butyl}-carbamic acid-tert-butylester] |  |  |  | 460 | 
19 | COc1cc2nc(NCCCCNC(=O)CC(C)C)c3nnc(C)n3c2cc1NC(=O)NC(C)C [Example 561, N-{4-[8-(3-isopropyl-ureido)-7-methoxy-1-methyl-[1,2,4]triazolo[4,3-a]quinoxaline-4-ylamino]-butyl}-3-methyl-butyramide] |  |  | ≤ 200 | 60 | 
20 | COc1cc2c(cc1OCCN1CCOCC1)nc(NCCCCNC(=O)CC(C)C)c1nnc(C)n12 [Example 577, N-{4-[8-methoxy-1-methyl-7-(2-morpholine-4-yl-ethoxy)-[1,2,4]triazolo[4,3-a]quinoxaline-4-ylamino]-butyl}-3-methyl butyramide] |  |  | ≤ 200 | 87 | 
21 | Cc1noc(C)c1-c1ccc2c(c1)nc(NCCCCN)c1nnc(C)n12 [Example 584, N^1-[7-(3,5-dimethyl-isoxazol-4-yl)-1-methyl-[1,2,4]triazolo[4,3-a]quinoxaline-4-yl]-butane-1,4-diamine ditrifluoroacetic acid] |  |  | ≤ 200 | 130 | 
22 | Cc1nnc2c(NCCCCNC(=O)[C@@H](NC(=O)CC(C)C)C(C)C)nc3cc(N4C[C@@H](C)O[C@@H](C)C4)ccc3n12 [Example 518, (S)-N-{4-[7-(2,6-dimethyl-morpholine-4-yl)-1-methyl-[1,2,4]triazolo[4,3-a]quinoxaline-4-ylamino]-butyl}-3-methyl-2-(3-methyl-butyrylamino)-butyramide] |  |  |  | 480 | 
23 | Cc1nnc2c(NCCCCNC(=O)CC(C)C)nc3cc(NC(=O)NC(C)C)ccc3n12 [Example 255, N-{4-[7-(3-isopropyl-ureido)-1-methyl-[1,2,4]triazolo[4,3-a]quinoxaline-4-ylamino]-butyl}-3-methyl-butyramide] |  |  | ≤ 200 | 93 | 
24 | COc1ccc2c(c1)nc(NCCCCNC(=O)C1CC1)c1nnc(C)n12 [Example 282, cyclopropane; carboxylic acid-[4-(7-methoxy-1-methyl-[1,2,4]triazolo[4,3-a]quinoxaline-4-ylamino)-butyl]-amide] |  |  |  | 534 | 
25 | Cc1nnc2c(NCCCCNC(=O)C(C)(C)C)nc3cc(OC(F)(F)F)ccc3n12 [Example 271, 2,2-dimethyl-N-[4-(1-methyl-7-trifluoromethoxy-[1,2,4]triazolo[4,3-a]quinoxaline-4-ylamino)-butyl]-propionamide] |  |  |  | 880 | 
26 | COc1cc2nc(NCCCCNC(=O)CC(C)C)c3nnc(C)n3c2cc1N(S(C)(=O)=O)S(C)(=O)=O [Example 566, N-[4-(8-dimethanesulfonyl-amino-7-methoxy-1-methyl-[1,2,4]triazolo[4,3-a]quinoxaline-4-ylamino)-butyl]-3-methyl-butyramide] |  |  |  |  | 550
27 | Cc1nnc2c(NCCCCNC(=O)CC(C)C)nc3cc(OC(=O)N4CCOCC4)ccc3n12 [Example 351] |  |  |  | 290 | 
28 | Cc1nnc2c(NCCCCNC(=O)OC(C)C)nc3cc(OC(C)C)ccc3n12 [Example 452, [4-(7-isopropoxy-1-methyl-[1,2,4]triazolo[4,3-a]quinoxaline-4-ylamino)-butyl]-carbamic acid isopropylester] |  |  |  | 320 | 
29 | COc1cc2nc(NCCCCNC(=O)OC(C)(C)C)c3nnc(C)n3c2cc1F [Example 572, [4-(8-fluoro-7-methoxy 1-methyl-[1,2,4]triazolo[4,3-a]quinoxaline-4-ylamino)-butyl]-carbamic acid-tert-butylester] |  |  |  | 238 | 
